Test results taken from the supplement of paper PMC10307832.

Columns and labels:
Assay in all cases: relative viability (nuclei count vs DMSO), 5 days (fraction); higher = more cells survive
Dovitinib + Navitoclax = compound: CN1CCN(c2ccc3nc(-c4c(N)c5c(F)cccc5[nH]c4=O)[nH]c3c2)CC1 [Dovitinib] + CC1(C)CCC(c2ccc(Cl)cc2)=C(CN2CCN(c3ccc(C(=O)NS(=O)(=O)c4ccc(N[C@H](CCN5CCOCC5)CSc5ccccc5)c(S(=O)(=O)C(F)(F)F)c4)cc3)CC2)C1 [Navitoclax] (partner 0.5 µM)
Summary of the method: (§1)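 Relative viability divides the nuclei count in treated wells by that in vehicle wells. Lung cancer cell lines were seeded in 1536-well plates, dosed by pin tool the next day, and fixed and stained after 5 days in one step with final 0.05% Triton X-100, 1% formaldehyde and 1 ug/ml Hoechst. Dosing was a single drug or a fixed anchor-drug dose plus five library-drug doses (not always all listed) in √10 steps, and values are medians of duplicate plates imaged at 4×.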

Dovitinib + Trametinib = compound: CN1CCN(c2ccc3nc(-c4c(N)c5c(F)cccc5[nH]c4=O)[nH]c3c2)CC1 [Dovitinib] + CC(=O)Nc1cccc(-n2c(=O)n(C3CC3)c(=O)c3c(Nc4ccc(I)cc4F)n(C)c(=O)c(C)c32)c1 [Trametinib] (partner 0.02 µM)
Summary of the method: as §1

Dovitinib + Pemetrexed = compound: CN1CCN(c2ccc3nc(-c4c(N)c5c(F)cccc5[nH]c4=O)[nH]c3c2)CC1 [Dovitinib] + Nc1nc2[nH]cc(CCc3ccc(C(=O)N[C@@H](CCC(=O)O)C(=O)O)cc3)c2c(=O)[nH]1 [Pemetrexed] (partner 0.2 µM)
Summary of the method: as §1

Dovitinib + Phenformin = compound: CN1CCN(c2ccc3nc(-c4c(N)c5c(F)cccc5[nH]c4=O)[nH]c3c2)CC1 [Dovitinib] + N=C(N)NC(=N)NCCc1ccccc1 [Phenformin] (partner 250 µM)
Summary of the method: as §1

Row | Cell Line | relative viability (Dovitinib + Navitoclax; first compound 0.02 µM) | relative viability (Dovitinib + Navitoclax; first compound 0.06325 µM) | relative viability (Dovitinib + Navitoclax; first compound 0.2 µM) | relative viability (Dovitinib + Navitoclax; first compound 0.6325 µM) | relative viability (Dovitinib + Navitoclax; first compound 2 µM) | relative viability (Dovitinib + Trametinib; first compound 0.02 µM) | relative viability (Dovitinib + Trametinib; first compound 0.06325 µM) | relative viability (Dovitinib + Trametinib; first compound 0.2 µM) | relative viability (Dovitinib + Trametinib; first compound 0.6325 µM) | relative viability (Dovitinib + Trametinib; first compound 2 µM) | relative viability (Dovitinib + Pemetrexed; first compound 0.02 µM) | relative viability (Dovitinib + Pemetrexed; first compound 0.06325 µM) | relative viability (Dovitinib + Pemetrexed; first compound 0.2 µM) | relative viability (Dovitinib + Pemetrexed; first compound 0.6325 µM) | relative viability (Dovitinib + Pemetrexed; first compound 2 µM) | relative viability (Dovitinib + Phenformin; first compound 0.02 µM) | relative viability (Dovitinib + Phenformin; first compound 0.06325 µM) | relative viability (Dovitinib + Phenformin; first compound 0.2 µM) | relative viability (Dovitinib + Phenformin; first compound 0.6325 µM) | relative viability (Dovitinib + Phenformin; first compound 2 µM)
1 | NCI-H441 | 0.665 | 0.54 | 0.911 | 0.572 | 0.775 | 0.486 | 0.477 | 0.434 | 0.441 | 0.49 | 0.257 | 0.266 | 0.296 | 0.271 | 0.24 | 0.981 | 0.786 | 0.767 | 0.898 | 0.839
2 | NCI-H1793 | 0.407 | 0.359 | 0.456 | 0.476 | 0.373 | 0.458 | 0.36 | 0.388 | 0.445 | 0.445 | 1.27 | 0.735 | 0.96 | 0.916 | 0.943 | 0.41 | 0.326 | 0.368 | 0.283 | 0.515
3 | NCI-H23 | 0.83 | 0.759 | 0.769 | 0.908 | 0.764 | 0.391 | 0.446 | 0.376 | 0.4 | 0.378 | 0.79 | 0.592 | 0.623 | 0.674 | 0.658 | 0.888 | 0.843 | 0.746 | 0.737 | 0.754
4 | HARA | 1.16 | 1.16 | 1.12 | 1.15 | 1.15 | 0.89 | 0.924 | 0.484 | 0.827 | 0.878 | 0.256 | 0.254 | 0.233 | 0.241 | 0.258 | 0.537 | 0.476 | 0.47 | 0.362 | 0.53
5 | NCI-H1792 | 0.671 | 0.637 | 0.62 | 0.751 | 0.588 | 0.394 | 0.457 | 0.416 | 0.46 | 0.36 | 0.909 | 0.631 | 0.672 | 0.972 | 0.827 | 0.384 | 0.264 | 0.482 | 0.357 | 0.322
6 | NCI-H1703 | 1.18 | 1.41 | 0.84 | 0.775 | 0.33 |  |  |  |  |  |  |  |  |  |  |  |  |  |  | 
7 | NCI-H2342 |  |  |  |  |  | 1.06 | 0.93 | 0.854 | 0.67 | 0.75 | 0.787 | 0.74 | 0.74 | 0.835 | 0.777 | 0.709 | 0.561 | 0.618 | 0.657 | 0.701
8 | CAL-12T | 1.24 | 1.12 | 1.43 | 1.17 | 1.42 | 0.491 | 0.34 | 0.413 | 0.36 | 0.371 | 1.11 | 1.16 | 1.21 | 1.24 | 1.17 | 0.585 | 0.624 | 0.556 | 0.616 | 0.664
9 | NCI-H727 | 0.497 | 0.491 | 0.421 | 0.468 | 0.414 | 0.405 | 0.401 | 0.407 | 0.416 | 0.426 |  |  |  |  |  | 0.524 | 0.488 | 0.664 | 0.516 | 0.642
10 | NCI-H2085 | 1.05 | 1.09 | 1.08 | 1.07 | 1.1 | 0.534 | 0.628 | 0.599 | 0.528 | 0.627 | 0.941 | 0.991 | 1.03 | 0.871 | 0.958 | 0.69 | 0.846 | 0.732 | 0.771 | 0.717
11 | NCI-H1395 | 1.26 | 1.53 | 1.26 | 1.01 | 1.21 | 1.04 | 0.984 | 1.07 | 1.02 | 1.06 | 0.91 | 0.807 | 0.933 | 0.911 | 1.02 | 0.455 | 0.415 | 0.488 | 0.445 | 0.462
12 | NCI-H1648 |  |  |  |  |  | 0.581 | 0.413 | 0.471 | 0.477 | 0.527 | 0.521 | 0.729 | 0.628 | 0.804 | 0.631 |  |  |  |  | 
13 | NCI-H460 | 0.961 | 1.14 | 1.02 | 1.08 | 1.14 | 0.161 | 0.146 | 0.206 | 0.224 | 0.128 | 0.0606 | 0.0581 | 0.0649 | 0.0683 | 0.0626 | 0.488 | 0.563 | 0.517 | 0.49 | 0.498
14 | A549 | 1.21 | 1.11 | 1.24 | 1.19 | 1.14 |  |  |  |  |  |  |  |  |  |  | 0.145 | 0.174 | 0.284 | 0.113 | 0.201
15 | IA-LM | 0.778 | 0.961 | 0.814 | 0.704 | 0.76 |  |  |  |  |  |  |  |  |  |  |  |  |  |  | 
16 | EKVX | 0.923 | 0.989 | 1.1 | 0.989 | 0.883 | 0.395 | 0.32 | 0.332 | 0.351 | 0.327 | 0.434 | 0.385 | 0.42 | 0.46 | 0.372 | 0.217 | 0.225 | 0.232 | 0.253 | 0.236
17 | ChaGo-K-1 | 1.01 | 0.976 | 0.975 | 1.14 | 1.18 | 0.868 | 0.875 | 0.936 | 0.885 | 0.778 | 0.263 | 0.25 | 0.251 | 0.258 | 0.26 | 0.469 | 0.534 | 0.499 | 0.476 | 0.51
18 | NCI-H1755 | 1.02 | 1 | 1.02 | 0.992 | 1.05 | 0.831 | 0.766 | 0.794 | 0.733 | 0.758 | 0.432 | 0.382 | 0.433 | 0.4 | 0.423 | 0.625 | 0.601 | 0.617 | 0.591 | 0.657
19 | NCI-H2228 | 0.897 | 1.16 | 0.833 | 0.908 | 0.885 | 0.652 | 0.467 | 0.454 | 0.507 | 0.488 | 0.258 | 0.344 | 0.324 | 0.33 | 0.321 | 0.288 | 0.419 | 0.285 | 0.432 | 0.285
